Measurements reported in patent US20120282377A1, “Methods and Formulations for Inhibiting Degradation of Photosensitive Sweeteners and Sweetener Enhancers” (priority 2011, published 2012).
Several values for one entry are separate records, joined by “and”; a condition that tells them apart may be missing. Identical values can stand only once.

Assays:
[1] = Monatin stability in lemon-lime beverage with or without EMIQ, UV irradiation (Example 4); format: physicochemical
Procedure: The polyphenol enzymatically-modified isoquercitrin (EMIQ) was used to stabilize monatin (31 mg/L) in a lemon lime carbonated beverage formulation contained in either a regular (clear, colorless) PET bottle or a dark-colored PET bottle. The level of EMIQ in the samples was 7.5 PPM. A control formulation was used that contained no EMIQ. The samples were exposed to UV light or ambient indoor laboratory fluorescent lighting for up to 72 hours. UV light was administered in a UV chamber at 40° C. with approximately 400 Langley per 6 hours of exposure. The results listed below indicate that the monatin was very unstable in the control formulations with only 1.4% monatin remaining after 24 hours exposure to UV light. EMIQ provided protection from degradation of the monatin. When packaged in a dark-colored PET bottle approximately 89% monatin remained in the formulation after exposure to UV light for 24 hours. When exposed to ambient indoor laboratory lighting for 72 hours over 90% monatin remained in both clear and dark PET bottles containing the EMIQ polyphenol. All analyses were done by HPLC/MS.

[2] = Odor analysis of UV and light exposed monatin samples by 6 panelists; format: physicochemical; design: key to Odor analysis: (+) = no odor or minor odor; (−) = distinct or unpleasant odor; details: for Odor analysis: 30 PPM in lemon lime matrix pH 3.35, panelists 1-6
Procedure: (§1) A survey of odor and visual analysis of the UV and light exposed samples of the monatin samples was conducted by 6 panelists. Samples for analysis were solution of monatin in a lemon lime matrix without flavor at pH 3.35 (30 PPM monatin) exposed to visible for three days or UV light for 24 hours (equivalent of four days sun exposure).

[3] = cited from earlier work
[4] = Monatin stability in PET bottle types with or without additives, 1600 Langley UV exposure (Example 5); format: physicochemical; details: 1600 Langley (24 hour at 40° C.); for Monatin remaining after UV exposure (ppm): control 43.3 ppm
Procedure: The stability of monatin in regular PET bottles, PET bottles with UV barrier (colorless or green) and with or without Chinese Green Tea polyphenol or α-cyclodextrin was evaluated. Each sample was irradiated with an irradiation energy of 1600 Langley exposure (24 hour exposure at 40° C. in Atlas SunTest XLS+chamber, which was equivalent to four day of sun exposure in Arizona). A control formulation was used that contained monatin at 43.3 ppm. The results were analyzed by LC-MS.

[5] = Visual analysis of UV and light exposed monatin samples by 6 panelists; format: physicochemical; design: key: (+) = colorless; (−) = color change (color noted); details: 30 PPM in lemon lime matrix pH 3.35, panelists 1-6
Procedure: as §1

[6] = dark-colored PET, with EMIQ 7.5 PPM, UV exp. 0 hours
[7] = dark-colored PET, with EMIQ 7.5 PPM, UV exp. 6 hours
[8] = dark-colored PET, with EMIQ 7.5 PPM, UV exp. 12 hours
[9] = dark-colored PET, with EMIQ 7.5 PPM, UV exp. 18 hours
[10] = dark-colored PET, with EMIQ 7.5 PPM, UV exp. 24 hours
[11] = regular PET, no EMIQ, UV exp. 0 hours
[12] = regular PET, no EMIQ, UV exp. 6 hours
[13] = regular PET, no EMIQ, UV exp. 12 hours
[14] = regular PET, no EMIQ, UV exp. 18 hours
[15] = regular PET, no EMIQ, UV exp. 24 hours
[16] = regular PET, with EMIQ 7.5 PPM, UV exp. 0 hours
[17] = regular PET, with EMIQ 7.5 PPM, UV exp. 6 hours
[18] = regular PET, with EMIQ 7.5 PPM, UV exp. 12 hours
[19] = regular PET, with EMIQ 7.5 PPM, UV exp. 18 hours
[20] = regular PET, with EMIQ 7.5 PPM, UV exp. 24 hours
[21] = PET with UV barrier, UV light 24 hours
[22] = PET with UV barrier, visible light three days
[23] = Regular PET, visible light three days
[24] = Green PET with UV barrier (0.12%), additives none
[25] = PET with UV barrier, Chinese Green Tea Polyphenol TP>40 (149 ppm)
[26] = PET with UV barrier, additives none
[27] = PET with UV barrier, α-cyclodextrin (729 ppm)

With `NC(CC(O)(Cc1c[nH]c2ccccc12)C(=O)O)C(=O)O` (centres unmarked) [Monatin, 2-amino-4-carboxy-4-hydroxy-5-(3-indolyl)-pentanoic acid] the “% Monatin remaining” value [1, 6] was 100%, the “Conc. of Monatin” value [1, 6] was 30930 ng/mL and the “% Monatin remaining” value [1, 7] was 92.4% and 92.3%. For the same compound, the “Conc. of Monatin” value [1, 7] was 28590 ng/mL and 28530 ng/mL, the “% Monatin remaining” value [1, 8] was 90.7% and 90.9% and the “Conc. of Monatin” value [1, 8] was 28050 ng/mL and 28100 ng/mL. The “% Monatin remaining” value [1, 9] was 90.7% and 90.5%, the “Conc. of Monatin” value [1, 9] was 28040 ng/mL and 28000 ng/mL and the “% Monatin remaining” value [1, 10] was 89.0% and 89.3%. The “Conc. of Monatin” value [1, 10] was 27510 ng/mL and 27620 ng/mL, the “% Monatin remaining” value ([1]; dark-colored PET, with EMIQ 7.5 PPM, UV exp. 24 hours, listed as monatin) was “approximately 89%” and the “% Monatin remaining” value [1, 11] was 100%. For the same compound, the “Conc. of Monatin” value [1, 11] was 30760 ng/mL and 30790 ng/mL, the “% Monatin remaining” value [1, 12] was 68.6% and the “Conc. of Monatin” value [1, 12] was 21130 ng/mL and 21110 ng/mL. The “% Monatin remaining” value [1, 13] was 9.4% and 9.3%, the “Conc. of Monatin” value [1, 13] was 2890 ng/mL and 2870 ng/mL and the “% Monatin remaining” value [1, 14] was 1.7% and 1.6%. The “Conc. of Monatin” value [1, 14] was 540 ng/mL and 510 ng/mL, the “% Monatin remaining” value [1, 15] was 1.4% and the “Conc. of Monatin” value [1, 15] was 430 ng/mL and 440 ng/mL. The “% Monatin remaining” value [1, 16] was 100%, the “Conc. of Monatin” value [1, 16] was 30930 ng/mL and the “% Monatin remaining” value [1, 17] was 83.1% and 82.9%. For the same compound, the “Conc. of Monatin” value [1, 17] was 25710 ng/mL and 25620 ng/mL, the “% Monatin remaining” value [1, 18] was 69.3% and the “Conc. of Monatin” value [1, 18] was 21420 ng/mL and 21440 ng/mL. For the same compound, the “% Monatin remaining” value [1, 19] was 52.0% and 51.7%, the “Conc. of Monatin” value [1, 19] was 16070 ng/mL and 15990 ng/mL and the “% Monatin remaining” value [1, 20] was 34.9% and 34.8%. For the same compound, the “Conc. of Monatin” value [1, 20] was 10800 ng/mL and 10760 ng/mL, the Odor analysis ([2]; Dark-colored PET bottle, UV light 24 hours) was “− and +” and the Odor analysis ([2]; Dark-colored PET bottle, visible light three days) was “− and +”. The Odor analysis [2, 21] was “− and +”, the Odor analysis [2, 22] was “+” and the Odor analysis ([2]; Regular PET, UV light 24 hours) was “− and +”. For the same compound, the Odor analysis [2, 23] was “+”, the “odor change after UV exposure” value ([2]; samples in the dark-colored PET bottles) was “no or minimal odor change” and the “degradation when exposed to UV light” value [3] was “degrade to malodorous degradation products”. For the same compound, the “Monatin remaining after UV exposure (%)” value [4, 24] was 65.6%, the “Monatin remaining after UV exposure (ppm)” value (“Monatin remaining … (ppm)” below) [4, 24] was 28.4 ppm and the “Monatin remaining after UV exposure (%)” value [4, 25] was 77.6%. For the same compound, the “Monatin remaining … (ppm)” value [4, 25] was 33.6 ppm, the “Monatin remaining after UV exposure (%)” value [4, 26] was 51.0% and the “Monatin remaining … (ppm)” value [4, 26] was 22.1 ppm. The “Monatin remaining after UV exposure (%)” value [4, 27] was 33.3%, the “Monatin remaining … (ppm)” value [4, 27] was 14.4 ppm and the “Monatin remaining after UV exposure (%)” value ([4]; Regular PET, additives none) was 13.4%. For the same compound, the “Monatin remaining … (ppm)” value ([4]; Regular PET, additives none) was 5.8 ppm, the Visual analysis [5, 21] was “−” and the Visual analysis [5, 22] was “+”. For the same compound, the Visual analysis ([5]; Regular PET, UV light 24 hours) was “−” and the Visual analysis [5, 23] was “+”.
